Results as given in patent US12083093B2, “Composition for preventing or treating cellular senescence-related diseases comprising salinomycin as effective component” (RESEARCH COOPERATION FOUNDATION OF YEUNGNAM UNIVERSITY, priority 2018, dated 2024).

Experiments:
[1] = test system: replicative senescent human fibroblasts (HDF); test: SAβG activity staining, replicative senescent human fibroblasts; type: cell-based; conditions: increasing concentration of salinomycin, senescent cells; FIG. 2A, 2B
Description: (§1) After dispensing 2×10^5 cells in a 100 mm culture dish, they were cultured in a 37° C., 5% CO2 incubator. When the cells grew to 80-90% in the culture dish, the cells were removed by treatment with trypsin-EDTA, and the number of cells was measured, and the cell population doubling time (PDT) was measured.
(§2) By successively subculturing the cells in the same process as described above, replication aging was induced. PDT of young fibroblasts was 36 hours, PDT of replicative senescent fibroblasts was 12 days, PDT of young vascular endothelial cells was 24 hours, and PDT of replicative senescent vascular endothelial cells was 7 days.
(§3) After each sample was dissolved in DMSO, young cells, replicative senescent cells and senescent cells in which premature aging was induced by treating with doxorubicin were treated with 100 nM salinomycin, 100 nM rapamycin, 100 nM ABT263. After incubation for 4 days in a 37° C., 5% CO2 incubator, the degree of cell survival was confirmed by CCK-8 analysis, the degree of cellular aging was confirmed by senescence-associated β-galactosidase (SAβG) staining, p53 and p16 protein expression analysis.
(§4) The cells were washed with 1× phosphate buffer solution, and fixed with a phosphate buffer solution containing 3.7% (v/v) paraformaldehyde. […]

[2] = test system: young fibroblasts (HDF); test: CCK-8 cell survival, young human fibroblasts; type: cell-based; conditions: young cells, increasing concentration of salinomycin; FIG. 2A, 2D
Description: as §3
Young cells (1×10^3 cells/well) or senescent cells (2×10^3 cells/well) were dispensed into a 96-well plate, and cultured overnight in a 37° C., 5% CO2 incubator. Salinomycin, ABT263 and rapamycin were treated at each concentration, and then incubated for 4 days in a 37° C., 5% CO2 incubator. 10 μl of CCK-8 reagent (Dojindo Molecular Technologies Inc., Kumamoto, Japan) was added to each well, and incubated for 2 hours in an incubator. Then, the absorbance was measured at 450 nm using a Microplate reader.
(§5) The degree of cell survival was expressed as a relative value for the absorbance of the control group treated with only DMSO as 100%.

[3] = test system: replicative senescent human fibroblasts (HDF); test: CCK-8 cell survival, replicative senescent human fibroblasts; type: cell-based; conditions: replicative senescent cells, increasing concentration of salinomycin; FIG. 2A, 2D
Description: as §1, §2
After each sample was dissolved in DMSO, young cells, replicative senescent cells and senescent cells in which premature aging was induced by treating with doxorubicin were treated with 100 nM salinomycin, 100 nM rapamycin, 100 nM ABT263. […]
(§6) Young cells (1×10^3 cells/well) or senescent cells (2×10^3 cells/well) were dispensed into a 96-well plate, and cultured overnight in a 37° C., 5% CO2 incubator. […] Then, the absorbance was measured at 450 nm using a Microplate reader.
as §5

[4] = test system: premature senescent vascular endothelial cells (HUVEC) by doxorubicin; test: SAβG activity staining, doxorubicin-induced premature senescent HUVEC; type: cell-based, human; conditions: 100 nM, 4 days; compared to DMSO-treated group; p<0.01; FIG. 3A, 3B
Description: (§7) Each cell was treated in a serum-free culture solution containing doxorubicin (0.5 μM) for 4 hours. After washing the cells with a serum-free culture solution, the cells were cultured for 4 days in a culture solution containing 10% FBS, and then cellular aging was confirmed by measuring the level of senescence by staining with senescence-associated beta galactosidase.
as §3
(§8) The cells were washed with 1× phosphate buffer solution, and fixed with a phosphate buffer solution containing 3.7% (v/v) paraformaldehyde. After adding 1 mg/ml 5-bromo-4-chloro-3-indolyl-β-D-galactoside, 40 mM citric acid-sodium phosphate (pH 6.0), 5 mM potassium ferricyanide, 5 mM potassium ferrocyanide, 150 mM NaCl, and 2 mM MgCl2 solution, it was reacted at 37° C. for 18 hours. It was stained with eosin as a control stain and cells stained blue in the cytoplasm were identified using an optical microscope. […]

[5] = test system: premature senescent vascular endothelial cells (HUVEC) by doxorubicin; test: CCK-8 cell survival, doxorubicin-induced premature senescent HUVEC; type: cell-based, human; conditions: 100 nM, 4 days; compared to DMSO-treated group; FIG. 3C
Description: as §7, §3
as §6, with “incubator. Salinomycin, ABT263 and rapamycin were treated at each concentration, and then incubated for 4 days in a 37° C., 5% CO2 incubator.” for “incubator.”
The degree of cell survival was expressed as a relative value for the absorbance of the control group treated with only DMSO as 100%. […]

[6] = test system: replicative senescent vascular endothelial cells (HUVEC); test: SAβG activity staining, replicative senescent HUVEC; type: cell-based, human; conditions: salinomycin treatment, 4 days; FIG. 4A, 4B
Description: as §1, §2, §3, §4

[7] = test system: premature senescent renal tubular cells (HK2) by doxorubicin; test: SAβG activity staining, doxorubicin-induced premature senescent HK2 cells; type: cell-based, human; conditions: 100 nM, 4 days; compared to DMSO-treated group; FIG. 6A-6C
Description: as §7, §3, §8

Structure (SMILES): CC[C@@H](C(=O)[C@@H](C)[C@@H](O)[C@H](C)[C@@H]1O[C@@H]([C@@H](CC)C(=O)O)CC[C@@H]1C)[C@H]1O[C@]2(C=C[C@@H](O)[C@]3(CC[C@@](C)([C@H]4CC[C@](O)(CC)[C@H](C)O4)O3)O2)[C@H](C)C[C@@H]1C [salinomycin]
- SAβG activity [1]: decreased in senescent cells in a concentration-dependent manner
- cell survival (CCK-8) [2]: no change
- cell survival (CCK-8) [3]: no change
- SAβG activity staining [4]: significantly decreased
- cell survival (CCK-8) [5]: no difference
- SAβG activity [6]: decreased
- SaβG activity [7]: no change
